Among the data in ChEMBL document CHEMBL3991601, “The target landscape of clinical kinase drugs” (Science, 2017) are Kd values, retold here.

Calls of active or inactive are those of the source. For most assays here, no stated cut-off is given here; in the data, actives have a measured Kd and inactives only a lower limit.

The target in assay [1] is Interleukin-1 receptor-associated kinase 1 (Homo sapiens, UniProt P51617).
The target of the next assay is T1, Pyridoxal kinase (Homo sapiens, UniProt O00764).
T1 sequence (O00764 whole entry): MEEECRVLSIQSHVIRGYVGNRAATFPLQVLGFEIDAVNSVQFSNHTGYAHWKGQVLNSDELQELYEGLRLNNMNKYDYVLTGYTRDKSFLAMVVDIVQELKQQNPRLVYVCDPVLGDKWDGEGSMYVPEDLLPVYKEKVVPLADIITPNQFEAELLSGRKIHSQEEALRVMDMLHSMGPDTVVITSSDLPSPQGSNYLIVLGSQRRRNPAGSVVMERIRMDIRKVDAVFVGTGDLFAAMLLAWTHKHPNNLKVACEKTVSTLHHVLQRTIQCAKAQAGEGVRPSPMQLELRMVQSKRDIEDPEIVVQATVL

The next assay has as its target Insulin receptor (Homo sapiens, UniProt P06213).
For assay [2], the target named is GTP-binding nuclear protein Ran (Homo sapiens, UniProt P62826).
Assay [3] addresses Citron Rho-interacting kinase (Homo sapiens, UniProt O14578).
Assay [4] addresses Mitogen-activated protein kinase 8 (Homo sapiens, UniProt P45983).
Assay [5] concerns the target T2, Serine/threonine-protein kinase PLK4 (Homo sapiens, UniProt O00444).
T2 sequence (O00444 whole entry): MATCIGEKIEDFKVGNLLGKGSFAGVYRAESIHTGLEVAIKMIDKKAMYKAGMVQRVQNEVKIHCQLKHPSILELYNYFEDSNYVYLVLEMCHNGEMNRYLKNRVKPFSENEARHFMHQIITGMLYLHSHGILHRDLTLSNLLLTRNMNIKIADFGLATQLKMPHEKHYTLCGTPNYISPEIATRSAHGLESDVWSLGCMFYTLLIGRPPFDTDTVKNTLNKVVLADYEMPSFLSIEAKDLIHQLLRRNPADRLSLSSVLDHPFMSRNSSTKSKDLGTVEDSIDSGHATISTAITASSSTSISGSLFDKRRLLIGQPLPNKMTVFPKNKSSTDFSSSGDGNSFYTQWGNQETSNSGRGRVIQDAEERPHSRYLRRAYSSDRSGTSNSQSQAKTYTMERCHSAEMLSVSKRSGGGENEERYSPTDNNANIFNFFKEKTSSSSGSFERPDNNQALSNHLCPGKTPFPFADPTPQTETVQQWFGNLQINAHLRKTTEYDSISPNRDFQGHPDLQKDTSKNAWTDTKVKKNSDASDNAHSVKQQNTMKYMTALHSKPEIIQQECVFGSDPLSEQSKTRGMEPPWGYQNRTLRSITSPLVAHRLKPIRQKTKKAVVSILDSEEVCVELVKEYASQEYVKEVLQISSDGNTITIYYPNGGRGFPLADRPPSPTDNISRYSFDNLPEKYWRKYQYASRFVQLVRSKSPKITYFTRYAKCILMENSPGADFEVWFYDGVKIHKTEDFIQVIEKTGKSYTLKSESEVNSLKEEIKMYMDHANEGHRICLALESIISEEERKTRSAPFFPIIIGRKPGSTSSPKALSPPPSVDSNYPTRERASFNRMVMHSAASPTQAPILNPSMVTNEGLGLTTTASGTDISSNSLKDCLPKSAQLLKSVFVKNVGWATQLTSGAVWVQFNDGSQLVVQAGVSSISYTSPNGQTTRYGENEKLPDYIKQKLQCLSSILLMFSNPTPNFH

Assay [6] concerns the target Mitogen-activated protein kinase 7 (Homo sapiens, UniProt Q13164).
The target of assay [7] is Tyrosine-protein kinase ABL1 (Homo sapiens, UniProt P00519).
Chain of Tyrosine-protein kinase ABL1 (P00519 whole entry): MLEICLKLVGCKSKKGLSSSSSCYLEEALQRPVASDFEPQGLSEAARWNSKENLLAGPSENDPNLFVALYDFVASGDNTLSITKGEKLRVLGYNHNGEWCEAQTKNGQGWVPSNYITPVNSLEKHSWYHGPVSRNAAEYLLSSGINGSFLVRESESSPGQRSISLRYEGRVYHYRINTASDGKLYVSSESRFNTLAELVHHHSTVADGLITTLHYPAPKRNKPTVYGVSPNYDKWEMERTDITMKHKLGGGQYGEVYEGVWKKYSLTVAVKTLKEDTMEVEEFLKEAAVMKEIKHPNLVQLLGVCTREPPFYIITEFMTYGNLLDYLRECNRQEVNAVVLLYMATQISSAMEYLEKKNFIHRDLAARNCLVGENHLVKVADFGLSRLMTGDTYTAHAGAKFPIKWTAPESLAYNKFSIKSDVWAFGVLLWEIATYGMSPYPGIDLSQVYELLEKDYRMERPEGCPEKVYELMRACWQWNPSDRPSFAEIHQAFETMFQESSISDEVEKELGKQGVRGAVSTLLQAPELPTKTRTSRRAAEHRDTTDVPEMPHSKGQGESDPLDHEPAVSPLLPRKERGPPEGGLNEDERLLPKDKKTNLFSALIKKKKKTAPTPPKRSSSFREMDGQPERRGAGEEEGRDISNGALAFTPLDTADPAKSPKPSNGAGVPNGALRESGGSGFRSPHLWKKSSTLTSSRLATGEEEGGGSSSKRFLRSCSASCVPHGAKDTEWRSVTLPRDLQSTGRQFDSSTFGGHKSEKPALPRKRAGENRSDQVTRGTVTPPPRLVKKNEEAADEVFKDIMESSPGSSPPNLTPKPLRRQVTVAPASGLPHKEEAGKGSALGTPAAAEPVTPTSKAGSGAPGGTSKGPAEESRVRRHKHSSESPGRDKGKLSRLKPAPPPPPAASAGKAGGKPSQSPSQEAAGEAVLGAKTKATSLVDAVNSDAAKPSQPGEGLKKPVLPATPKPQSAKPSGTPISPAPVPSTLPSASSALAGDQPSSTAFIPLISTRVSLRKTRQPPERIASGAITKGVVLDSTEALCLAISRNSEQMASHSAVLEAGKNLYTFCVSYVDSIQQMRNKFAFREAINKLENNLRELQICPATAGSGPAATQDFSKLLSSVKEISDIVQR
For assay [8], the target named is T3, Serine/threonine-protein kinase LATS1 (Homo sapiens, UniProt O95835).
T3 sequence (O95835 whole entry): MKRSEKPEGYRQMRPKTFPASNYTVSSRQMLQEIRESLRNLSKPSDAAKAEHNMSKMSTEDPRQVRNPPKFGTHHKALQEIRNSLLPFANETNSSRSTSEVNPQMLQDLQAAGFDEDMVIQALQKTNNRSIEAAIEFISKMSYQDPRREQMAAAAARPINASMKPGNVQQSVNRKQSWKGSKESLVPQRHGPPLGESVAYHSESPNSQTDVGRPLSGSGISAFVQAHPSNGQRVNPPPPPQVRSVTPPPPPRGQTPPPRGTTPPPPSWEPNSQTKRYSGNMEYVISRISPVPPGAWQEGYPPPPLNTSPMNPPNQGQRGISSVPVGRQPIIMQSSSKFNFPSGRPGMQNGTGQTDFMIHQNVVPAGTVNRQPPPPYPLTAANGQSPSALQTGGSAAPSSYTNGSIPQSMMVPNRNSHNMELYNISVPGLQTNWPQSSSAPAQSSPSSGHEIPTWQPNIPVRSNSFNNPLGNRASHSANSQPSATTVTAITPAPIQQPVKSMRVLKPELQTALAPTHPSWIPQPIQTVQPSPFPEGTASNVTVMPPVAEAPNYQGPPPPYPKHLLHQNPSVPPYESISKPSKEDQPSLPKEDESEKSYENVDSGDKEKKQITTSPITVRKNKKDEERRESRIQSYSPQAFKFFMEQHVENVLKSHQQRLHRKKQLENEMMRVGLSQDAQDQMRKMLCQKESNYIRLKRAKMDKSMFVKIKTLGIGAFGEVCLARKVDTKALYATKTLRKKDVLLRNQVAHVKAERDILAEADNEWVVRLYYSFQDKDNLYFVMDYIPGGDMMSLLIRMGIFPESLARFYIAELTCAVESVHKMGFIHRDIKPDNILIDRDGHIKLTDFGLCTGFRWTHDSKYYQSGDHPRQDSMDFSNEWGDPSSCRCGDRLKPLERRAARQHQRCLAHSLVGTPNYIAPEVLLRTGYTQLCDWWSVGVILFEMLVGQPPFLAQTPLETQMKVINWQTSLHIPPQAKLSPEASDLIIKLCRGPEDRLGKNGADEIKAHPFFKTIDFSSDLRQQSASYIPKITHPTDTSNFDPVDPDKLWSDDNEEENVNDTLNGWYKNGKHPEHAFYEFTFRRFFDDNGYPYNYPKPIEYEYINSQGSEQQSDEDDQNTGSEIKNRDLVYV

Chain of Citron Rho-interacting kinase (O14578 whole entry): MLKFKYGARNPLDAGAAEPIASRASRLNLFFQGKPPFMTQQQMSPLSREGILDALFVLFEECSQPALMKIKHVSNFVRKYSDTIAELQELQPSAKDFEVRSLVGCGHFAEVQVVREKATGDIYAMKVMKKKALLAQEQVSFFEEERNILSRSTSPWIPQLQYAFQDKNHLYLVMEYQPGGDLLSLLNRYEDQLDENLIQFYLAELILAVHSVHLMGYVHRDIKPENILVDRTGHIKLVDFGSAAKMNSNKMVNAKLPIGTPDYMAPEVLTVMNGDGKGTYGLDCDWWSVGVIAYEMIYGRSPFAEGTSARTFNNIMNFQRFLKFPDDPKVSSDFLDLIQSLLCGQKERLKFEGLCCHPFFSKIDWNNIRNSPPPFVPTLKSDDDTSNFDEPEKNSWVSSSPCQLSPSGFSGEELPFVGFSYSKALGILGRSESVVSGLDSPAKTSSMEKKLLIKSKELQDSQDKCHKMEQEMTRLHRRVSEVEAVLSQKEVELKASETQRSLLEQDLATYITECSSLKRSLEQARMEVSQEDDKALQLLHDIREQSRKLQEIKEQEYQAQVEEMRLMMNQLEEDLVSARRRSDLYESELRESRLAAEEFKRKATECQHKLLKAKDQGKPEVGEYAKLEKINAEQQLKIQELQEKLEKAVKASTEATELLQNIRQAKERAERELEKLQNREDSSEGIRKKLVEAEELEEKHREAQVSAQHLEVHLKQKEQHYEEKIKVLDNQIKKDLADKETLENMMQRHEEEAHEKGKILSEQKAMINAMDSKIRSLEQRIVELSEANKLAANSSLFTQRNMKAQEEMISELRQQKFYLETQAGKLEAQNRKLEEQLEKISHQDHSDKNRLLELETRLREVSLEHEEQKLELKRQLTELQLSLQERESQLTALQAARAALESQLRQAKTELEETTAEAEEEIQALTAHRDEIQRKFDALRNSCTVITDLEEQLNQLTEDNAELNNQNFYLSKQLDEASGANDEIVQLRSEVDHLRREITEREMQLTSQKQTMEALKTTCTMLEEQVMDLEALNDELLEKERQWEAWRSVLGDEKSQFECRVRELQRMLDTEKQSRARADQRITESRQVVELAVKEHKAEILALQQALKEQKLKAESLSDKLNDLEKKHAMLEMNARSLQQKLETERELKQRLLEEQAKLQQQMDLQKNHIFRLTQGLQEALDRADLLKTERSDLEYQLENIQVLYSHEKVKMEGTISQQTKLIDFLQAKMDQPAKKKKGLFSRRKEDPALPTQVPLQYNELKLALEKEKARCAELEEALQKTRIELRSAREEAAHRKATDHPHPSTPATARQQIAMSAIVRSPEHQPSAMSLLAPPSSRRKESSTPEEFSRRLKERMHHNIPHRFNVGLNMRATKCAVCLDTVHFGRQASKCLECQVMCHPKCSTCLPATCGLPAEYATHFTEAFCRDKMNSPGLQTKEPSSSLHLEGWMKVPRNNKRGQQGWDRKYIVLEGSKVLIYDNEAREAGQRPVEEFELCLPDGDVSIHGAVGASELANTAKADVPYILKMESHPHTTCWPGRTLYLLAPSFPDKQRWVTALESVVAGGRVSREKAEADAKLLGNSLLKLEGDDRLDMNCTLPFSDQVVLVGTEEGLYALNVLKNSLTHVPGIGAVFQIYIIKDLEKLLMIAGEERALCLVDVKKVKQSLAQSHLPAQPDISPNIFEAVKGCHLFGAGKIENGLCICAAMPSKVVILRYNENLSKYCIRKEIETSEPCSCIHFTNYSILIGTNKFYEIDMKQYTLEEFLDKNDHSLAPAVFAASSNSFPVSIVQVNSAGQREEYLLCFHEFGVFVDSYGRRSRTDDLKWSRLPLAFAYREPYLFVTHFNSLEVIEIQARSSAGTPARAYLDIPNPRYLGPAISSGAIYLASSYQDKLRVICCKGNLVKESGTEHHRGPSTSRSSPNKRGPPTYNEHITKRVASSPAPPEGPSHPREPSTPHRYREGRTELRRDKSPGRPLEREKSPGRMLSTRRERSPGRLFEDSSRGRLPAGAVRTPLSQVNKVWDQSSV
Chain of Mitogen-activated protein kinase 8 (P45983 whole entry): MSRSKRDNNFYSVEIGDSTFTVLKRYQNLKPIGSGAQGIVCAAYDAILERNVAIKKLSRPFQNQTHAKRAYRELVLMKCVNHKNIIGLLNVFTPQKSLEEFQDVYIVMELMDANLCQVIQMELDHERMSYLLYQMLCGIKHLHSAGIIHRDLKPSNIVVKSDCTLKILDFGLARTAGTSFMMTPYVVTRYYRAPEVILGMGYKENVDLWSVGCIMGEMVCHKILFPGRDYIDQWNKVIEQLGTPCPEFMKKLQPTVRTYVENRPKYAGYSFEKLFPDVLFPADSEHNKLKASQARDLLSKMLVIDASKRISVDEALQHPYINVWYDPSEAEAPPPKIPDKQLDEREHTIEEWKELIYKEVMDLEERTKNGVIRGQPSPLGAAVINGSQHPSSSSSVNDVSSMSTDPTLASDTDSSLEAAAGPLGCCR
Chain of Interleukin-1 receptor-associated kinase 1 (P51617 whole entry): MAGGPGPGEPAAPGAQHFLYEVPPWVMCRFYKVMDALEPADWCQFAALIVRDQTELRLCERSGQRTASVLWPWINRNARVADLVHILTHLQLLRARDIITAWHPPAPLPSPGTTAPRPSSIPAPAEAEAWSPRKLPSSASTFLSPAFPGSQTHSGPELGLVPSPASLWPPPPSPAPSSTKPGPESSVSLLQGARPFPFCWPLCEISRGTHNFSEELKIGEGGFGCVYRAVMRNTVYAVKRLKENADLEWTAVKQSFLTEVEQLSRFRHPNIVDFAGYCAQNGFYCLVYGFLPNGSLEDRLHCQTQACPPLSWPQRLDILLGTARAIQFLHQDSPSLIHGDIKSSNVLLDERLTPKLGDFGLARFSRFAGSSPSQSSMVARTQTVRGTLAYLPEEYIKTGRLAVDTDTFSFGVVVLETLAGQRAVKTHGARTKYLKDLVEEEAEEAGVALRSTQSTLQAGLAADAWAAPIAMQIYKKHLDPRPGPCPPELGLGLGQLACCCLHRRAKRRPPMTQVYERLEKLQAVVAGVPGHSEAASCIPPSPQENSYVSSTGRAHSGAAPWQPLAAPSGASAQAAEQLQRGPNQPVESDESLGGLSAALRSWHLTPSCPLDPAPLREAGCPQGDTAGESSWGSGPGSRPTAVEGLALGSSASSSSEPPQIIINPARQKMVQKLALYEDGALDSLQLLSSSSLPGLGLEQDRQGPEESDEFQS
Chain of Mitogen-activated protein kinase 7 (Q13164 whole entry): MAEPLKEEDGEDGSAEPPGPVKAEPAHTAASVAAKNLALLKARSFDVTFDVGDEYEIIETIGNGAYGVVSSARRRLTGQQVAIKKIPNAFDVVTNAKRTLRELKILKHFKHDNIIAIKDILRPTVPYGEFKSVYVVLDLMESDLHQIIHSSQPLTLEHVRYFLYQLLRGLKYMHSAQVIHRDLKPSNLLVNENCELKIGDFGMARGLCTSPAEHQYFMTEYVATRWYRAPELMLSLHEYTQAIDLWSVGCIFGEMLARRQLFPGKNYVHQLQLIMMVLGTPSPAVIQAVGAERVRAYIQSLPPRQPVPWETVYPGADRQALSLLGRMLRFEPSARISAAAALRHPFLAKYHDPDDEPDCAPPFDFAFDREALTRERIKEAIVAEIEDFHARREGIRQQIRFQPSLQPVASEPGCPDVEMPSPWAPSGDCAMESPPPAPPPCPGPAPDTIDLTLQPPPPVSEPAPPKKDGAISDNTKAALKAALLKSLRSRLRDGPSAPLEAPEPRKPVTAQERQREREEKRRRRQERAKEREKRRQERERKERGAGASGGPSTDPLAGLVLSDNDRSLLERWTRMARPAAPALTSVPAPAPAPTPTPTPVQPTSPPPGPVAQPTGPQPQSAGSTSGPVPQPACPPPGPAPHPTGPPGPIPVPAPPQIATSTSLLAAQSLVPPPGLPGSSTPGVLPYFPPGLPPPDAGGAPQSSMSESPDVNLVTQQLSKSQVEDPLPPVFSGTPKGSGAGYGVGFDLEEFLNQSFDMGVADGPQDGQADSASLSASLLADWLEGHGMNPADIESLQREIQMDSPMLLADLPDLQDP

A word on the Kd: it is the free concentration of one partner at which half of the binding sites on the other are occupied at equilibrium, for simple one-to-one binding. Consider `Cc1nc(NC(=O)N2CCC[C@H]2C(N)=O)sc1-c1ccnc(C(C)(C)C(F)(F)F)c1` [ALPELISIB], for which the Kd (in [1]; on Pyridoxal kinase; on Insulin receptor; in assay [2]; in assay [3]; in assay [4]) was > 30 µM (inactive) throughout. The Kd in [5], in assay [6], in assay [7] and in [8] was > 30 µM (inactive) in each case.
As for `Cc1csc(-c2nnc(Nc3ccc(Oc4ncccc4-c4ccnc(N)n4)cc3)c3ccccc23)c1` [AMG-900], the Kd (in [1]; on Pyridoxal kinase; at Insulin receptor; in assay [2]; in assay [3]; in assay [4]) was > 30 µM (inactive) throughout. For the same compound, the Kd in assay [5] was > 30 µM (inactive); in assay [6], > 30 µM (inactive); in [7] it was 1.9 µM (active); in assay [8] it was > 30 µM (inactive).
Turning to `C=CC(=O)Nc1cc2c(Nc3ccc(F)c(Cl)c3)ncnc2cc1C#CC(C)(C)N1CCN(C)CC1` [AV-412 FREE BASE], the Kd (in assay [1]; at Pyridoxal kinase; at Insulin receptor; in assay [2]; in assay [3]; in assay [4]) was > 30 µM (inactive) throughout. The Kd in assay [5], in assay [6], in [7] and in assay [8] was > 30 µM (inactive) throughout.
As for `COc1cc([C@@H]2c3cc4c(cc3[C@H](O)[C@H]3COC(=O)[C@@H]23)OCO4)cc(OC)c1OC` [AXL-1717], the Kd (in assay [1]; on Pyridoxal kinase; at Insulin receptor; in [2]; in assay [3]; in [4]) was > 30 µM (inactive) in each case. The Kd in assay [5], in [6], in assay [7] and in assay [8] was > 30 µM (inactive) each time.
With `NC(=O)Nc1cc(-c2cccc(F)c2)sc1C(=O)N[C@H]1CCCNC1` [AZD-7762], the Kd (in assay [1]; at Pyridoxal kinase; on Insulin receptor; in [2]; in [3]; in assay [4]) was > 30 µM (inactive) throughout. The Kd was 0.722 µM (active) in assay [5], > 30 µM (inactive) in assay [6], 0.61 µM (active) in assay [7] and > 30 µM (inactive) in assay [8].
Consider `Cc1cc(C(=O)NOCCO)c(Nc2ccc(I)cc2F)n(C)c1=O` [AZD-8330], for which the Kd (in assay [1]; on Pyridoxal kinase; at Insulin receptor; in assay [2]; in assay [3]; in assay [4]) was > 30 µM (inactive) throughout. Besides, the Kd in assay [5], in assay [6], in [7] and in [8] was > 30 µM (inactive) in each case.
As to `Cn1cnc2c(F)c(Nc3ccc(Br)cc3F)c(C(=O)NOCCO)cc21` [BINIMETINIB], the Kd (in [1]; at Pyridoxal kinase; on Insulin receptor; in [2]; in assay [3]; in [4]) was > 30 µM (inactive) each time. The Kd in [5], in assay [6], in assay [7] and in assay [8] was > 30 µM (inactive) each time.
